What was measured:
Assay type in all cases: in vivo
[1] = system: barnyardgrass (Echinochloa crus-galli); experiment: Test A preemergence; conditions: Echinochloa crus-galli, pre-emergence, 240 h, Preemergence; for pest or weed control at 31 g/ha: 31 g ai/ha, 0 to 100 scale where 0 is no effect and 100 is complete control, read-out: Barnyardgrass plant response rating; for pest or weed control at 125 g/ha: 125 g ai/ha, visual injury rating after approximately 10 d, read-out: Barnyardgrass plant response rating (0 to 100 scale, 0 is no effect, 100 is complete control)
How it was run: (§1)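 In a loam soil and sand blend, planted seeds got a preemergence directed soil spray, and young plants at the one- to two-leaf stage, 2–10 cm high, got a postemergence application; ~10 d greenhouse hold; injury rated visually, 0 = none, 100 = complete control.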

[2] = system: pigweed (Amaranthus retroflexus); experiment: Test A preemergence; conditions: Amaranthus retroflexus, pre-emergence, 240 h, 0 to 100 scale where 0 is no effect and 100 is complete control, read-out: Pigweed plant response rating; for pest or weed control at 31 g/ha: 31 g ai/ha, Preemergence; for pest or weed control at 125 g/ha: 125 g ai/ha, preemergence, approx. 10 d
[3] = system: ragweed (common ragweed, Ambrosia elatior); experiment: Test A preemergence; conditions: Ambrosia artemisiifolia, pre-emergence, 240 h, 0 to 100 scale where 0 is no effect and 100 is complete control, read-out: Ragweed plant response rating; for pest or weed control at 31 g/ha: 31 g ai/ha, Preemergence; for pest or weed control at 125 g/ha: 125 g ai/ha, preemergence, approx. 10 d
How it was run: as §1

[4] = system: ryegrass, Italian (Italian ryegrass, Lolium multiflorum); experiment: Test A preemergence; conditions: Lolium multiflorum, pre-emergence, 240 h, 0 to 100 scale where 0 is no effect and 100 is complete control, read-out: Ryegrass, Italian plant response rating; for pest or weed control at 31 g/ha: 31 g ai/ha, Preemergence; for pest or weed control at 125 g/ha: 125 g ai/ha, preemergence, approx. 10 d
How it was run: as §1

Kochia (Kochia scoparia) [5] = experiment: Test A preemergence; conditions: Bassia scoparia, pre-emergence, 240 h, 0 to 100 scale where 0 is no effect and 100 is complete control, read-out: Kochia plant response rating; for pest or weed control at 31 g/ha: 31 g ai/ha, Preemergence; for pest or weed control at 125 g/ha: 125 g ai/ha, preemergence, approx. 10 d
How it was run: as §1

[6] = system: giant foxtail (Setaria faberii); experiment: Test A preemergence; conditions: Setaria faberi, pre-emergence, 240 h, Preemergence; for pest or weed control at 31 g/ha: 31 g ai/ha, 0 to 100 scale where 0 is no effect and 100 is complete control, read-out: Foxtail, Giant plant response rating; for pest or weed control at 125 g/ha: 125 g ai/ha, visual injury rating after approximately 10 d, read-out: Foxtail, Giant plant response rating (0 to 100 scale, 0 is no effect, 100 is complete control)
How it was run: as §1

[7] = system: sedge, umbrella (small-flower umbrella sedge, Cyperus difformis); experiment: Test B flooded paddy test; conditions: Cyperus difformis, 250 g ai/ha, Flood; 0 to 100 scale where 0 is no effect and 100 is complete control; read-out: Sedge, Umbrella plant response rating
How it was run: (§2)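 Flooding to 3 cm over soil accompanied treatment, which consisted of adding compound to the standing water around 2-leaf plants; depth was then maintained. Visual assessment versus controls followed at 13 to 15 d (scale 0–100, 0 meaning no effect).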

[8] = system: barnyardgrass (Echinochloa crus-galli); experiment: Test B flooded paddy test; conditions: Echinochloa crus-galli, 250 g ai/ha, Flood; 0 to 100 scale where 0 is no effect and 100 is complete control; read-out: Barnyardgrass plant response rating
How it was run: as §2

[9] = system: ducksalad (Heteranthera limosa); experiment: Test B flooded paddy test; conditions: Heteranthera limosa, 250 g ai/ha, Flood; 0 to 100 scale where 0 is no effect and 100 is complete control; read-out: Ducksalad plant response rating
How it was run: as §2

rice (Oryra sativa) = experiment: Test B flooded paddy test; conditions: Oryza sativa, 250 g ai/ha, Flood; 0 to 100 scale where 0 is no effect and 100 is complete control; read-out: Rice plant response rating
How it was run: as §2

[10] = system: wheat (Triticum aestivum); experiment: Test A postemergence; conditions: Triticum aestivum, post-emergence, 240 h; for plant injury at 125 g/ha: 125 g ai/ha, postemergence, visual injury on 0 to 100 scale (0 no effect, 100 complete control), approx. 10 d, read-out: Wheat plant response rating; for plant injury at 31 g/ha: Postemergence, 31 g ai/ha, visual injury after approx. 10 d, 0 to 100 scale, 0 no effect, 100 complete control, read-out: Plant response rating, Wheat
How it was run: as §1

[11] = system: barnyardgrass (Echinochloa crus-galli); experiment: Test A postemergence; conditions: Echinochloa crus-galli, post-emergence, 240 h; for pest or weed control at 125 g/ha: 125 g ai/ha, postemergence, visual injury on 0 to 100 scale (0 no effect, 100 complete control), approx. 10 d, read-out: Barnyardgrass plant response rating; for pest or weed control at 31 g/ha: Postemergence, 31 g ai/ha, visual injury after approx. 10 d, 0 to 100 scale, 0 no effect, 100 complete control, read-out: Plant response rating, Barnyardgrass
How it was run: as §1

[12] = system: pigweed (Amaranthus retroflexus); experiment: Test A postemergence; conditions: Amaranthus retroflexus, post-emergence, 240 h; for pest or weed control at 125 g/ha: 125 g ai/ha, postemergence, visual injury on 0 to 100 scale (0 no effect, 100 complete control), approx. 10 d, read-out: Pigweed plant response rating; for pest or weed control at 31 g/ha: Postemergence, 31 g ai/ha, visual injury after approx. 10 d, 0 to 100 scale, 0 no effect, 100 complete control, read-out: Plant response rating, Pigweed
How it was run: as §1

[13] = system: ragweed (common ragweed, Ambrosia elatior); experiment: Test A postemergence; conditions: Ambrosia artemisiifolia, post-emergence, 240 h; for pest or weed control at 125 g/ha: 125 g ai/ha, postemergence, visual injury on 0 to 100 scale (0 no effect, 100 complete control), approx. 10 d, read-out: Ragweed plant response rating; for pest or weed control at 31 g/ha: Postemergence, 31 g ai/ha, visual injury after approx. 10 d, 0 to 100 scale, 0 no effect, 100 complete control, read-out: Plant response rating, Ragweed
How it was run: as §1

[14] = system: ryegrass, Italian (Italian ryegrass, Lolium multiflorum); experiment: Test A postemergence; conditions: Lolium multiflorum, post-emergence, 240 h; for pest or weed control at 125 g/ha: 125 g ai/ha, postemergence, visual injury on 0 to 100 scale (0 no effect, 100 complete control), approx. 10 d, read-out: Ryegrass, Italian plant response rating; for pest or weed control at 31 g/ha: Postemergence, 31 g ai/ha, visual injury after approx. 10 d, 0 to 100 scale, 0 no effect, 100 complete control, read-out: Plant response rating, Ryegrass, Italian
How it was run: as §1

Kochia (Kochia scoparia) [15] = experiment: Test A postemergence; conditions: Bassia scoparia, post-emergence, 240 h; for pest or weed control at 125 g/ha: 125 g ai/ha, postemergence, visual injury on 0 to 100 scale (0 no effect, 100 complete control), approx. 10 d, read-out: Kochia plant response rating; for pest or weed control at 31 g/ha: Postemergence, 31 g ai/ha, visual injury after approx. 10 d, 0 to 100 scale, 0 no effect, 100 complete control, read-out: Plant response rating, Kochia
How it was run: as §1

[16] = system: blackgrass (Alopecurus myosuroides); experiment: Test A postemergence; conditions: Alopecurus myosuroides, post-emergence, 240 h; for pest or weed control at 125 g/ha: 125 g ai/ha, postemergence, visual injury on 0 to 100 scale (0 no effect, 100 complete control), approx. 10 d, read-out: Blackgrass plant response rating; for pest or weed control at 31 g/ha: Postemergence, 31 g ai/ha, visual injury after approx. 10 d, 0 to 100 scale, 0 no effect, 100 complete control, read-out: Plant response rating, Blackgrass
How it was run: as §1

[17] = system: Galium (catchweed bedstraw, Galium aparine); experiment: Test A postemergence; conditions: Galium, post-emergence, 240 h; for pest or weed control at 125 g/ha: 125 g ai/ha, postemergence, visual injury on 0 to 100 scale (0 no effect, 100 complete control), approx. 10 d, read-out: Galium plant response rating; for pest or weed control at 31 g/ha: Postemergence, 31 g ai/ha, visual injury after approx. 10 d, 0 to 100 scale, 0 no effect, 100 complete control, read-out: Plant response rating, Galium
How it was run: as §1

[18] = system: giant foxtail (Setaria faberii); experiment: Test A postemergence; conditions: Setaria faberi, post-emergence, 240 h; for pest or weed control at 125 g/ha: 125 g ai/ha, postemergence, visual injury on 0 to 100 scale (0 no effect, 100 complete control), approx. 10 d, read-out: Foxtail, Giant plant response rating; for pest or weed control at 31 g/ha: Postemergence, 31 g ai/ha, visual injury after approx. 10 d, 0 to 100 scale, 0 no effect, 100 complete control, read-out: Plant response rating, Foxtail, Giant
How it was run: as §1

corn (Zea mays) = experiment: Test A postemergence; conditions: Zea mays, post-emergence, 240 h; for plant injury at 125 g/ha: 125 g ai/ha, postemergence, visual injury on 0 to 100 scale (0 no effect, 100 complete control), approx. 10 d, read-out: Corn plant response rating; for Corn plant response rating (crop injury, 0 = no effect, 100 = complete kill) at 31 g/ha: Postemergence, 31 g ai/ha, visual injury after approx. 10 d, 0 to 100 scale, 100 complete control
How it was run: as §1

| SMILES | pest or weed control at 31 g/ha [1] [%] | pest or weed control at 125 g/ha [1] [%] | pest or weed control at 31 g/ha [2] [%] | pest or weed control at 125 g/ha [2] [%] | pest or weed control at 31 g/ha [3] [%] | pest or weed control at 125 g/ha [3] [%] | pest or weed control at 31 g/ha [4] [%] | pest or weed control at 125 g/ha [4] [%] | pest or weed control at 31 g/ha (Kochia (Kochia scoparia) [5]) [%] | pest or weed control at 125 g/ha (Kochia (Kochia scoparia) [5]) [%] | pest or weed control at 31 g/ha [6] [%] | pest or weed control at 125 g/ha [6] [%] | pest or weed control at 250 g/ha [7] [%] | pest or weed control at 250 g/ha [8] [%] | pest or weed control at 250 g/ha [9] [%] | pest or weed control at 250 g/ha (rice (Oryra sativa)) [%] | plant injury at 125 g/ha [10] [%] | plant injury at 31 g/ha [10] [%] | pest or weed control at 125 g/ha [11] [%] | pest or weed control at 31 g/ha [11] [%] | further results |
| --- | --- | --- | --- | --- | --- | --- | --- | --- | --- | --- | --- | --- | --- | --- | --- | --- | --- | --- | --- | --- | --- |
| Cc1ccc([C@H]2CN(C)C(=O)[C@@H]2C(=O)Nc2cnccc2C(F)(F)F)cc1 [Compound 1067] | 30 | 100 | 0 | 0 | 0 | 60 | 20 | 70 | 0 | 70 | 90 | 100 | 0 | 20 | 85 | 0 | 40 | 0 | 60 | 20 | pest or weed control at 125 g/ha [12]: 0%; pest or weed control at 31 g/ha [12]: 0%; pest or weed control at 125 g/ha [13]: 0%; pest or weed control at 31 g/ha [13]: 0%; pest or weed control at 125 g/ha [14]: 0%; pest or weed control at 31 g/ha [14]: 0%; pest or weed control at 125 g/ha (Kochia (Kochia scoparia) [15]): 30%; pest or weed control at 31 g/ha (Kochia (Kochia scoparia) [15]): 0%; pest or weed control at 125 g/ha [16]: 50%; pest or weed control at 31 g/ha [16]: 0%; pest or weed control at 125 g/ha [17]: 50%; pest or weed control at 31 g/ha [17]: 0%; pest or weed control at 125 g/ha [18]: 90%; pest or weed control at 31 g/ha [18]: 30%; plant injury at 125 g/ha (corn (Zea mays)): 0%; Corn plant response rating (crop injury, 0 = no effect, 100 = complete kill) at 31 g/ha (corn (Zea mays)): 0% |
| Cc1ccncc1NC(=O)[C@H]1C(=O)N(C)C[C@@H]1c1ccc(C(F)(F)F)cc1 [Compound 1068] | 0 | 0 | 0 | 0 | 0 | 0 | 0 | 0 | 0 | 0 | 0 | 0 | 0 | 0 | 90 | 0 | 0 | 0 | 0 | 0 | pest or weed control at 125 g/ha [12]: 0%; pest or weed control at 31 g/ha [12]: 0%; pest or weed control at 125 g/ha [13]: 0%; pest or weed control at 31 g/ha [13]: 0%; pest or weed control at 125 g/ha [14]: 0%; pest or weed control at 31 g/ha [14]: 0%; pest or weed control at 125 g/ha (Kochia (Kochia scoparia) [15]): 0%; pest or weed control at 31 g/ha (Kochia (Kochia scoparia) [15]): 0%; pest or weed control at 125 g/ha [16]: 0%; pest or weed control at 31 g/ha [16]: 0%; pest or weed control at 125 g/ha [17]: 0%; pest or weed control at 31 g/ha [17]: 0%; pest or weed control at 125 g/ha [18]: 0%; pest or weed control at 31 g/ha [18]: 0%; plant injury at 125 g/ha (corn (Zea mays)): 0%; Corn plant response rating (crop injury, 0 = no effect, 100 = complete kill) at 31 g/ha (corn (Zea mays)): 0% |

Reference: patent US12077503B2, “Substituted cyclic amides and their use as herbicides” (FMC CORPORATION, priority 2015, dated 2024)
